Test results reported in ChEMBL document CHEMBL1133531, “Carbonic anhydrase inhibitors: perfluoroalkyl/aryl-substituted derivatives of aromatic/heterocyclic sulfonamides as topical intraocular pressure-lowering agents with prolonged duration of action” (J Med Chem, 2000).
Values after ≈ are worked out from the molar mass of the structure shown.

Experiments:
Oryctolagus cuniculus [1] = organism: Oryctolagus cuniculus
Description: Tested for in vivo IOP-lowering of normotensive albino rabbits after topical administration at the specified interval (60 min) at pH 6.5

Oryctolagus cuniculus [2] = organism: Oryctolagus cuniculus; remark: listed apart in the source
Description: In vitro transcorneal accession rate in rabbit corneal intact epithelium

[3] = Solubility in pH 7.4 Buffer, at 25 Degree C; type: physicochemical
Oryctolagus cuniculus [4] = organism: Oryctolagus cuniculus; remark: listed apart in the source
Description: In vitro transcorneal accession rate in rabbit corneal denuded epithelium

Oryctolagus cuniculus [5] = organism: Oryctolagus cuniculus; remark: listed apart in the source
Description: Tested for ex vivo distribution in cornea after topical administration in albino rabbits (Ocular tissue concentration after 2 hr)

[6] = octanol/water
Description: Partition coefficient (logD) (chloroform/buffer)

Carbonic anhydrase 4 = target: T1, Carbonic anhydrase 4 (Bos taurus, UniProt Q95323)
T1 sequence (Q95323 whole entry): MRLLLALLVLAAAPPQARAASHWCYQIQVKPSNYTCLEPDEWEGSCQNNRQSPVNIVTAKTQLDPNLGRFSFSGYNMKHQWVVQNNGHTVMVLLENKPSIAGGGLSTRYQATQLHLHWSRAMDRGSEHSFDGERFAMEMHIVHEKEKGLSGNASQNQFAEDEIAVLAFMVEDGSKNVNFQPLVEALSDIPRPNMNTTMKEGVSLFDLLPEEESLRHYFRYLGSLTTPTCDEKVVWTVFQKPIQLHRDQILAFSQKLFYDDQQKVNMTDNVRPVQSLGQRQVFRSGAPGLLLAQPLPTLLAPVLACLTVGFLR
Description: Inhibition of bovine carbonic anhydrase IV (CA4) from bovine lung microsomes

Oryctolagus cuniculus [7] = organism: Oryctolagus cuniculus; remark: listed apart in the source
Description: Tested for in vivo IOP-lowering of normotensive albino rabbits after topical administration at the specified interval (30 min) at pH 6.5

Oryctolagus cuniculus [8] = assay: Tested for in vivo IOP-lowering of glaucomatous rabbits after topical administration at the specified interval( 30 min) at pH 6.5; type: functional
Oryctolagus cuniculus [9] = assay: Tested for in vivo IOP-lowering of glaucomatous rabbits after topical administration at the specified interval( 60 min) at pH 6.5; type: functional
Oryctolagus cuniculus [10] = assay: Tested for in vivo IOP-lowering of glaucomatous rabbits after topical administration at the specified interval( 90 min) at pH 6.5; type: functional
Oryctolagus cuniculus [11] = organism: Oryctolagus cuniculus; remark: listed apart in the source
Description: Tested for ex vivo distribution in cornea after topical administration in albino rabbits (Ocular tissue concentration after 1 hr)

Oryctolagus cuniculus [12] = organism: Oryctolagus cuniculus; remark: listed apart in the source
Description: Tested for ex vivo distribution in aqueous humor after topical administration in albino rabbits (Ocular tissue concentration after 2 hr)

Oryctolagus cuniculus [13] = organism: Oryctolagus cuniculus; remark: listed apart in the source
Description: Tested for ex vivo distribution in ciliary process after topical administration in albino rabbits (Ocular tissue concentration after 2 hr)

Oryctolagus cuniculus [14] = organism: Oryctolagus cuniculus; remark: listed apart in the source
Description: Tested for ex vivo distribution in ciliary process after topical administration in albino rabbits (Ocular tissue concentration after 1 hr)

Oryctolagus cuniculus [15] = organism: Oryctolagus cuniculus; remark: listed apart in the source
Description: Tested for in vivo IOP-lowering of normotensive albino rabbits after topical administration at the specified interval (90 min) at pH 6.5

Oryctolagus cuniculus [16] = organism: Oryctolagus cuniculus; remark: listed apart in the source
Description: Tested for ex vivo distribution in aqueous humor after topical administration in albino rabbits (Ocular tissue concentration after 1 hr)

Carbonic anhydrase 1 [17] = target: T2, Carbonic anhydrase 1 (Homo sapiens, UniProt P00915)
T2 sequence (P00915 whole entry): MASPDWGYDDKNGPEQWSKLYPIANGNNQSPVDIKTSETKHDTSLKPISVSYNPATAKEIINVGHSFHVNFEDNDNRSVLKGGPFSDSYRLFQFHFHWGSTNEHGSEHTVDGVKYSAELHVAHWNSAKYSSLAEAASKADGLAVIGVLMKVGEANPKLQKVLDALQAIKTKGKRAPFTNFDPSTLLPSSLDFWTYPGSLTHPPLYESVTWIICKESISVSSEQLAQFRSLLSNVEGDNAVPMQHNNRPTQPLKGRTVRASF
Description: Inhibition of human recombinant carbonic anhydrase I (CA1)

Carbonic anhydrase 1 [18] = target: T2, Carbonic anhydrase 1; assay: 99 Tested for inhibition of human (cloned) isozyme Carbonic anhydrase I
Oryctolagus cuniculus [19] = organism: Oryctolagus cuniculus; remark: listed apart in the source
Description: Tested for in vivo IOP-lowering of normotensive albino rabbits after topical administration at the specified interval (60 min) at pH 7

Oryctolagus cuniculus [20] = organism: Oryctolagus cuniculus; remark: listed apart in the source
Description: Tested for in vivo IOP-lowering of normotensive albino rabbits after topical administration at the specified interval (90 min) at pH 7

Oryctolagus cuniculus [21] = organism: Oryctolagus cuniculus; remark: listed apart in the source
Description: Tested for in vivo IOP-lowering of normotensive albino rabbits after topical administration at the specified interval (30 min) at pH 7

Carbonic anhydrase 1 [22] = target: T2, Carbonic anhydrase 1; assay: Tested for inhibition of human (cloned) isoenzyme carbonic anhydrase 1.
Carbonic anhydrase 1 [23] = target: T2, Carbonic anhydrase 1; assay: Tested for inhibition of human (cloned) isozyme Carbonic anhydrase I
physchem = details: pH 7.4 buffer
Description: Tested for solubility in pH 7.4 buffer, at 25 Degree C

[24] = Partition coefficient (logD) (chloroform-buffer); type: physicochemical

| Ki (Carbonic anhydrase 4) | Ki (Carbonic anhydrase 1 [17]) | Structure (SMILES) | Kin (Oryctolagus cuniculus [2]) | Kin (Oryctolagus cuniculus [4]) | other results |
| --- | --- | --- | --- | --- | --- |
| 9 nM | 250 nM | Cn1nc(S(N)(=O)=O)sc1=NS(=O)(=O)c1c(F)c(F)c(F)c(F)c1F | 4900 h⁻¹ | 8800 h⁻¹ | Delta IOP (Oryctolagus cuniculus [1]): 11.3 mmHg; solubility [3]: 66 mM (≈ 28 mg/mL); Drug concentration (Oryctolagus cuniculus [5]): 36 µM; logD [6]: 2.347; Delta IOP (Oryctolagus cuniculus [7]): 4.7 mmHg; Delta IOP (Oryctolagus cuniculus [8]): 7.1 mmHg; Delta IOP (Oryctolagus cuniculus [9]): 14.2 mmHg; Delta IOP (Oryctolagus cuniculus [10]): 16.9 mmHg; Drug concentration (Oryctolagus cuniculus [11]): 150 µM; Drug concentration (Oryctolagus cuniculus [12]): 39 µM; Drug concentration (Oryctolagus cuniculus [13]): 7.1 µM; Drug concentration (Oryctolagus cuniculus [14]): 38 µM; Delta IOP (Oryctolagus cuniculus [15]): 9.1 mmHg; Drug concentration (Oryctolagus cuniculus [16]): 296 µM |
| 600 nM |  | NS(=O)(=O)c1ccc(NC(=O)c2c(F)c(F)c(F)c(F)c2F)cc1 |  |  | Ki (Carbonic anhydrase 1 [18]): 950 nM |
| 9 nM | 200 nM | NS(=O)(=O)c1nnc(NC(=O)CCNS(=O)(=O)c2c(F)c(F)c(F)c(F)c2F)s1 |  |  | Delta IOP (Oryctolagus cuniculus [19]): 7.5 mmHg; Delta IOP (Oryctolagus cuniculus [20]): 6.1 mmHg; Delta IOP (Oryctolagus cuniculus [21]): 4 mmHg |
| 860 nM |  | NS(=O)(=O)c1ccc(NNS(=O)(=O)C(F)(F)C(F)(F)C(F)(F)C(F)(F)C(F)(F)C(F)(F)C(F)(F)C(F)(F)F)cc1 |  |  | Ki (Carbonic anhydrase 1 [22]): 1680 nM |
| 12500 nM | 2550 nM | NS(=O)(=O)c1ccc(NS(=O)(=O)C(F)(F)C(F)(F)C(F)(F)C(F)(F)C(F)(F)C(F)(F)C(F)(F)C(F)(F)F)c(Br)c1 |  |  |  |
| 45000 nM | 80000 nM | NS(=O)(=O)c1ccc(CCOS(=O)(=O)C(F)(F)F)cc1 |  |  |  |
| 810 nM |  | NS(=O)(=O)c1ccccc1NC(=O)c1c(F)c(F)c(F)c(F)c1F |  |  | Ki (Carbonic anhydrase 1 [23]): 1560 nM |
| 33 nM | 1000 nM | Cn1nc(S(N)(=O)=O)s/c1=N/S(=O)(=O)c1ccc(NS(=O)(=O)C(F)(F)F)cc1 |  |  |  |
| 650 nM |  | NS(=O)(=O)c1cccc(NC(=O)c2c(F)c(F)c(F)c(F)c2F)c1 |  |  | Ki (Carbonic anhydrase 1 [23]): 1400 nM |
| 5 nM | 17 nM | NS(=O)(=O)c1nc2ccc(OCCOS(=O)(=O)C(F)(F)C(F)(F)C(F)(F)C(F)(F)C(F)(F)C(F)(F)C(F)(F)C(F)(F)F)cc2s1 |  |  |  |
| 21 nM | 800 nM | NS(=O)(=O)c1nnc(NS(=O)(=O)c2ccc(NS(=O)(=O)C(F)(F)C(F)(F)C(F)(F)C(F)(F)C(F)(F)C(F)(F)C(F)(F)C(F)(F)F)cc2)s1 | 4.1 h⁻¹ | 7.5 h⁻¹ | logD [24]: 1.689 |
| 13 nM | 600 nM | NS(=O)(=O)c1nnc(NS(=O)(=O)c2ccc(NC(=O)C(F)(F)C(F)(F)C(F)(F)C(F)(F)C(F)(F)C(F)(F)C(F)(F)C(F)(F)F)cc2)s1 | 3.2 h⁻¹ | 8 h⁻¹ | logD [24]: 1.436 |
| 10 nM | 55 nM | NS(=O)(=O)c1nc2ccc(OS(=O)(=O)C(F)(F)F)cc2s1 |  |  |  |
| 9200 nM | 20900 nM | NS(=O)(=O)c1ccc(CCOS(=O)(=O)C(F)(F)C(F)(F)C(F)(F)C(F)(F)F)cc1 |  |  |  |
| 6 nM | 210 nM | NS(=O)(=O)c1nnc(NS(=O)(=O)c2c(F)c(F)c(F)c(F)c2F)s1 | 4500 h⁻¹ | 8700 h⁻¹ | solubility [3]: 62 mM (≈ 25.4 mg/mL); Drug concentration (Oryctolagus cuniculus [5]): 69 µM; logD [6]: 2.113; Drug concentration (Oryctolagus cuniculus [11]): 176 µM; Drug concentration (Oryctolagus cuniculus [12]): 42 µM; Drug concentration (Oryctolagus cuniculus [13]): 12.5 µM; Drug concentration (Oryctolagus cuniculus [14]): 45 µM; Drug concentration (Oryctolagus cuniculus [16]): 324 µM |
|  |  | CC(=O)/N=c1/sc(S(N)(=O)=O)nn1C [METHAZOLAMIDE] | 1900 h⁻¹ | 13000 h⁻¹ | logD [6]: 0.06 |

| Structure (SMILES) | Ki (Carbonic anhydrase 4) | Ki (Carbonic anhydrase 1 [17]) | Kin (Oryctolagus cuniculus [2]) | Kin (Oryctolagus cuniculus [4]) | other results |
| --- | --- | --- | --- | --- | --- |
| NS(=O)(=O)c1nc2ccc(NS(=O)(=O)c3c(F)c(F)c(F)c(F)c3F)cc2s1 | 5 nM | 41 nM |  |  | Delta IOP (Oryctolagus cuniculus [19]): 8 mmHg; Delta IOP (Oryctolagus cuniculus [20]): 6.6 mmHg; Delta IOP (Oryctolagus cuniculus [21]): 3 mmHg |
| Cn1nc(S(N)(=O)=O)sc1=NS(=O)(=O)C(F)(F)F | 32 nM | 2000 nM | 3100 h⁻¹ | 4800 h⁻¹ | Delta IOP (Oryctolagus cuniculus [1]): 7.3 mmHg; Delta IOP (Oryctolagus cuniculus [7]): 3.2 mmHg; solubility (physchem): 69 mM (≈ 22.5 mg/mL); Delta IOP (Oryctolagus cuniculus [15]): 4.9 mmHg; logD [24]: 1.012 |
| NS(=O)(=O)c1nnc(NS(=O)(=O)C(F)(F)C(F)(F)C(F)(F)C(F)(F)F)s1 | 9 nM | 360 nM | 4300 h⁻¹ | 7000 h⁻¹ | Delta IOP (Oryctolagus cuniculus [19]): 8.5 mmHg; Delta IOP (Oryctolagus cuniculus [20]): 5.6 mmHg; solubility (physchem): 50 mM (≈ 23.1 mg/mL); Delta IOP (Oryctolagus cuniculus [21]): 2.8 mmHg; logD [24]: 1.525 |
| NS(=O)(=O)c1nnc(NC(=O)c2c(F)c(F)c(F)c(F)c2F)s1 | 10 nM | 250 nM | 4800 h⁻¹ | 10100 h⁻¹ | Delta IOP (Oryctolagus cuniculus [19]): 7.3 mmHg; Delta IOP (Oryctolagus cuniculus [20]): 6.5 mmHg; solubility (physchem): 43 mM (≈ 16.1 mg/mL); Delta IOP (Oryctolagus cuniculus [21]): 2.2 mmHg; logD [24]: 2.245 |
